Experimental data reported in ChEMBL document CHEMBL3880437, “Modulators of the prostacyclin (PGI2) receptor useful for the treatment of disorders related thereto” (2014).

Legend:
[1] = target: Prostacyclin receptor (Homo sapiens, UniProt P43119); experiment: Agonist activity at human recombinant prostacyclin receptor expressed in CHO-K1 cells assessed as induction of cAMP accumulation incubated for 1 hr by HTRF assay; format: functional, cell-based
[2] = system: Platelet; experiment: Inhibition of ADP-induced platelet aggregation in human platelet rich plasma pre-incubated for 1 min before ADP addition and measured 3 mins post ADP addition by aggregometry; format: functional

Chain of Prostacyclin receptor (P43119 whole entry): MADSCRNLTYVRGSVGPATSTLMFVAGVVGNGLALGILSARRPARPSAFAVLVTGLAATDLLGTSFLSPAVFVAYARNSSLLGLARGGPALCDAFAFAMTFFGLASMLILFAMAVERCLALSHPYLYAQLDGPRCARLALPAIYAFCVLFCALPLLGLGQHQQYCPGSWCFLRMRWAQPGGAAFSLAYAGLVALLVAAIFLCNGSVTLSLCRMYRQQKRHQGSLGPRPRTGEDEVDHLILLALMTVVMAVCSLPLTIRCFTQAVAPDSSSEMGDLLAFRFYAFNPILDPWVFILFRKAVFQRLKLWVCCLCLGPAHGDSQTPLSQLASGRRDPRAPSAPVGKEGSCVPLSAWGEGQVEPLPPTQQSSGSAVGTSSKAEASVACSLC

SMILES | EC50 [1] | IC50 [2]
O=C(O)COC[C@H]1CC[C@H](COC(=O)N(c2cccc(F)c2)c2ccc(Cl)c(F)c2)CC1 | 2.7 to 2650 nM | 10.5 to 1590 nM
O=C(O)COC[C@H]1CC[C@H](COC(=O)N(c2ccc(F)cc2)c2cccnc2)CC1 | 2.7 to 2650 nM | 10.5 to 1590 nM
O=C(O)COC[C@H]1CC[C@H](COC(=O)N(c2ccc(F)cc2)c2ccc(Cl)cc2)CC1 | 2.7 to 2650 nM | 10.5 to 1590 nM
O=C(O)COC[C@H]1CC[C@H](COC(=O)Nc2ccccc2)CC1 | 2.7 to 2650 nM | 10.5 to 1590 nM
O=C(O)COC[C@H]1CC[C@H](COC(=O)N(c2cccc(F)c2)c2ccc(F)c(Cl)c2)CC1 | 2.7 to 2650 nM | 10.5 to 1590 nM
O=C(O)COC[C@H]1CC[C@H](COC(=O)N(c2ccccc2)c2ccccc2)CC1 | 2.7 to 2650 nM | 10.5 to 1590 nM
CN(C[C@H]1CC[C@H](COCC(=O)O)CC1)C(=O)N(C)C(c1ccccc1)c1ccccc1 | 2.7 to 2650 nM | 10.5 to 1590 nM
O=C(O)COC[C@H]1CC[C@H](CNC(=O)N(c2ccccc2)c2cc(F)cc(Cl)c2)CC1 | 2.7 to 2650 nM | 10.5 to 1590 nM
O=C(O)COC[C@H]1CC[C@H](CNC(=O)NC(c2ccccc2)c2ccccc2)CC1 | 2.7 to 2650 nM | 10.5 to 1590 nM
O=C(O)COC[C@H]1CC[C@H](CNC(=O)N(c2ccccc2)c2ccc(F)c(F)c2)CC1 | 2.7 to 2650 nM | 10.5 to 1590 nM
O=C(O)COC[C@H]1CC[C@H](COC(=O)N(c2cccc(F)c2)c2cc(F)cc(F)c2)CC1 | 2.7 to 2650 nM | 10.5 to 1590 nM
O=C(O)COC[C@H]1CC[C@H](COC(=O)N(c2ccccc2)c2cccc(F)c2F)CC1 | 2.7 to 2650 nM | 10.5 to 1590 nM
CN(C(=O)NC[C@H]1CC[C@H](COCC(=O)O)CC1)C(c1ccccc1)c1ccccc1 | 2.7 to 2650 nM | 10.5 to 1590 nM
O=C(O)COC[C@H]1CC[C@H](COC(=O)N(c2ccccc2)c2ccccn2)CC1 | 2.7 to 2650 nM | 10.5 to 1590 nM
COc1ccccc1N(C(=O)OC[C@H]1CC[C@@H](COCC(=O)O)CC1)c1ccccc1 | 2.7 to 2650 nM | 10.5 to 1590 nM
O=C(O)COC[C@H]1CC[C@H](COC(=O)N(c2cccnc2)c2cccc(F)c2)CC1 | 2.7 to 2650 nM | 10.5 to 1590 nM
O=C(O)COC[C@H]1CC[C@H](CNC(=O)N(c2ccccc2)c2ccc(Cl)c(F)c2)CC1 | 2.7 to 2650 nM | 10.5 to 1590 nM
O=C(O)COC[C@H]1CC[C@H](CNC(=O)N(c2ccccc2)c2ccc(F)cc2)CC1 | 2.7 to 2650 nM | 10.5 to 1590 nM
COc1ccc(N(C(=O)OC[C@H]2CC[C@@H](COCC(=O)O)CC2)c2ccccc2)cc1 | 2.7 to 2650 nM | 10.5 to 1590 nM
O=C(O)COC[C@H]1CC[C@H](CNC(=O)N(c2ccccc2)c2cc(F)cc(F)c2)CC1 | 2.7 to 2650 nM | 10.5 to 1590 nM
Cc1cccc(N(C(=O)NC[C@H]2CC[C@H](COCC(=O)O)CC2)c2ccccc2)c1 | 2.7 to 2650 nM | 10.5 to 1590 nM
Cc1ccc(N(C(=O)OC[C@H]2CC[C@H](COCC(=O)O)CC2)c2ccccc2)cc1F | 2.7 to 2650 nM | 10.5 to 1590 nM
COc1cccc(N(C(=O)OC[C@H]2CC[C@@H](COCC(=O)O)CC2)c2ccccc2)c1 | 2.7 to 2650 nM | 10.5 to 1590 nM
O=C(O)COC[C@H]1CC[C@H](COC(=O)N(c2ccccc2)c2ccc(F)nc2)CC1 | 2.7 to 2650 nM | 10.5 to 1590 nM
O=C(O)COC[C@H]1CC[C@H](COC(=O)N(c2ccccc2)c2ccc(F)cn2)CC1 | 2.7 to 2650 nM | 10.5 to 1590 nM
O=C(O)COC[C@H]1CC[C@H](COC(=O)N(c2ccccc2)c2ccc(C(F)(F)F)cn2)CC1 | 2.7 to 2650 nM | 10.5 to 1590 nM

SMILES | EC50 [1] | IC50 [2]
O=C(O)COC[C@H]1CC[C@H](COC(=O)N(c2ccccc2)c2cc(F)cc(F)c2)CC1 | 2.7 to 2650 nM | 10.5 to 1590 nM
O=C(O)COC[C@H]1CC[C@H](COC(=O)N(c2ccc(F)nc2)c2cccc(F)c2)CC1 | 2.7 to 2650 nM | 10.5 to 1590 nM
Cc1ccc(N(C(=O)OC[C@H]2CC[C@H](COCC(=O)O)CC2)c2ccccc2)cc1 | 2.7 to 2650 nM | 10.5 to 1590 nM
COc1ccc(N(C(=O)NC[C@H]2CC[C@H](COCC(=O)O)CC2)c2ccccc2)cc1 | 2.7 to 2650 nM | 10.5 to 1590 nM
COc1cncc(N(C(=O)OC[C@H]2CC[C@H](COCC(=O)O)CC2)c2ccccc2)c1 | 2.7 to 2650 nM | 10.5 to 1590 nM
Cc1ccc(N(C(=O)OC[C@H]2CC[C@H](COCC(=O)O)CC2)c2cccc(F)c2)cc1F | 2.7 to 2650 nM | 10.5 to 1590 nM
Cc1cccc(N(C(=O)OC[C@H]2CC[C@H](COCC(=O)O)CC2)c2ccc(F)cc2)c1 | 2.7 to 2650 nM | 10.5 to 1590 nM
Cc1cc(C)cc(N(C(=O)OC[C@H]2CC[C@H](COCC(=O)O)CC2)c2cccc(F)c2)c1 | 2.7 to 2650 nM | 10.5 to 1590 nM
Cc1ccc(N(C(=O)NC[C@H]2CC[C@H](COCC(=O)O)CC2)c2ccccc2)cc1 | 2.7 to 2650 nM | 10.5 to 1590 nM
O=C(O)COC[C@H]1CC[C@H](COC(=O)N(c2ccc(F)cc2)c2ccc(OC(F)(F)F)cc2)CC1 | 2.7 to 2650 nM | 10.5 to 1590 nM
COc1ccc(N(C(=O)OC[C@H]2CC[C@H](COCC(=O)O)CC2)c2ccccc2)cc1 | 2.7 to 2650 nM | 10.5 to 1590 nM
O=C(O)CNC(=O)COC[C@H]1CC[C@H](COC(=O)N(c2ccccc2)c2ccc(Cl)cc2)CC1 |  | 10.5 to 1590 nM
Cc1ccc(N(C(=O)OC[C@H]2CC[C@H](COCC(=O)O)CC2)c2cccc(F)c2)s1 |  | 10.5 to 1590 nM
O=C(O)COC[C@H]1CC[C@H](COC(=O)N(c2ccccc2)c2ccc(F)c(F)c2)CC1 | 2.7 to 2650 nM | 10.5 to 1590 nM
O=C(O)COC[C@H]1CC[C@H](COC(=O)N(c2ccccc2)c2ccc(Cl)cn2)CC1 | 2.7 to 2650 nM | 10.5 to 1590 nM
O=C(O)COC[C@H]1CC[C@H](COC(=O)N(c2ccc(F)cc2)c2ccc(F)cc2)CC1 | 2.7 to 2650 nM | 10.5 to 1590 nM
O=C(O)COC[C@H]1CC[C@H](COC(=O)N(c2ccc(O)cc2)c2ccc(Cl)cc2)CC1 | 2.7 to 2650 nM | 10.5 to 1590 nM
O=C(O)COC[C@H]1CC[C@@H](COC(=O)N(c2ccccc2)c2ccccc2)CC1 | 2.7 to 2650 nM | 10.5 to 1590 nM
COc1cccc(N(C(=O)NC[C@H]2CC[C@H](COCC(=O)O)CC2)c2ccccc2)c1 | 2.7 to 2650 nM | 10.5 to 1590 nM
Cc1ccc(N(C(=O)NC[C@H]2CC[C@H](COCC(=O)O)CC2)c2ccc(C)cc2)cc1 | 2.7 to 2650 nM | 10.5 to 1590 nM
O=C(O)COC[C@H]1CC[C@H](COC(=O)N(c2cccc(F)c2)c2cccc(OC(F)(F)F)c2)CC1 | 2.7 to 2650 nM | 10.5 to 1590 nM
O=C(O)COC[C@H]1CC[C@H](COC(=O)N(c2cccc(F)c2)c2cnccn2)CC1 | 2.7 to 2650 nM | 10.5 to 1590 nM
O=C(O)COC[C@H]1CC[C@H](CNC(=O)N(c2ccccc2)c2cccc(C(F)(F)F)c2)CC1 | 2.7 to 2650 nM | 10.5 to 1590 nM
COc1cccc(N(C(=O)OC[C@H]2CC[C@H](COCC(=O)O)CC2)c2cccc(F)c2)c1 | 2.7 to 2650 nM | 10.5 to 1590 nM
O=C(O)COC[C@H]1CC[C@H](CNC(=O)N(c2ccccc2)c2cccc(F)c2)CC1 | 2.7 to 2650 nM | 10.5 to 1590 nM
O=C(O)COC[C@H]1CC[C@H](COC(=O)N(c2ccccc2)c2cc(F)cc(Cl)c2)CC1 | 2.7 to 2650 nM | 10.5 to 1590 nM

SMILES | EC50 [1] | IC50 [2]
Cc1cncc(N(C(=O)OC[C@H]2CC[C@H](COCC(=O)O)CC2)c2ccccc2)c1 | 2.7 to 2650 nM | 10.5 to 1590 nM
O=C(O)COC[C@H]1CC[C@H](COC(=O)N(c2ccc(F)cc2)c2cccc(Cl)c2)CC1 | 2.7 to 2650 nM | 10.5 to 1590 nM
O=C(O)COC[C@H]1CC[C@H](COC(=O)N(c2ccccc2)c2cccc(Cl)c2)CC1 |  | 10.5 to 1590 nM
O=C(O)COC[C@H]1CC[C@@H](CNC(=O)N(c2ccccc2)c2ccccc2)CC1 |  | 10.5 to 1590 nM
Cc1cnc(N(C(=O)OC[C@H]2CC[C@H](COCC(=O)O)CC2)c2ccccc2)s1 | 2.7 to 2650 nM | 10.5 to 1590 nM
O=C(O)COC[C@H]1CC[C@H](COC(=O)N(c2ccccc2)c2ccc(F)cc2)CC1 |  | 10.5 to 1590 nM
CN(C(=O)OC[C@H]1CC[C@H](COCC(=O)O)CC1)C(c1ccccc1)c1ccccc1 | 2.7 to 2650 nM | 10.5 to 1590 nM
Cc1cccc(N(C(=O)NC[C@H]2CC[C@H](COCC(=O)O)CC2)c2cccc(C)c2)c1 | 2.7 to 2650 nM | 10.5 to 1590 nM
COc1ccc(N(C(=O)OC[C@H]2CC[C@H](COCC(=O)O)CC2)c2cccc(F)c2)cc1 |  | 10.5 to 1590 nM
O=C(O)COC[C@H]1CC[C@H](COC(=O)N(c2ccccc2)c2ccnc(F)c2)CC1 | 2.7 to 2650 nM | 10.5 to 1590 nM
CCOc1ccc(N(C(=O)OC[C@H]2CC[C@H](COCC(=O)O)CC2)c2cccc(F)c2)cc1 | 2.7 to 2650 nM | 10.5 to 1590 nM
CCCN(C(=O)OC[C@H]1CC[C@H](COCC(=O)O)CC1)C(c1ccccc1)c1ccccc1 | 2.7 to 2650 nM | 10.5 to 1590 nM
O=C(O)COC[C@H]1CC[C@H](CNC(=O)N(c2ccccc2)c2ccc(Cl)cc2)CC1 | 2.7 to 2650 nM | 10.5 to 1590 nM
Cc1ccc(N(C(=O)OC[C@H]2CC[C@H](COCC(=O)O)CC2)c2ccc(F)cc2)s1 | 2.7 to 2650 nM | 10.5 to 1590 nM
Cc1cccc(N(C(=O)OC[C@H]2CC[C@H](COCC(=O)O)CC2)c2cccc(F)c2)c1 | 2.7 to 2650 nM | 10.5 to 1590 nM
O=C(O)COC[C@H]1CC[C@H](CNC(=O)N(c2ccccc2)c2ccccc2F)CC1 | 2.7 to 2650 nM | 10.5 to 1590 nM
O=C(O)COC[C@H]1CC[C@H](CNC(=O)N(c2ccccc2)c2cccc(Cl)c2)CC1 |  | 10.5 to 1590 nM
O=C(O)COC[C@H]1CC[C@H](COC(=O)N(c2cccc(F)c2)c2ccc(F)c(F)c2)CC1 | 2.7 to 2650 nM | 10.5 to 1590 nM
Cc1cccc(N(C(=O)OC[C@H]2CC[C@H](COCC(=O)O)CC2)c2ccccc2)c1 | 2.7 to 2650 nM | 10.5 to 1590 nM
O=C(O)COC[C@H]1CC[C@H](COC(=O)N(c2cccc(F)c2)c2cccc(Cl)c2)CC1 | 2.7 to 2650 nM | 10.5 to 1590 nM
O=C(O)COC[C@H]1CC[C@H](COC(=O)N(c2ccccc2)c2cnccn2)CC1 | 2.7 to 2650 nM | 10.5 to 1590 nM
O=C(O)COC[C@H]1CC[C@@H](COC(=O)N(c2ccccc2)c2ccc(Cl)cc2)CC1 |  | 10.5 to 1590 nM
O=C(O)COC[C@H]1CC[C@@H](COC(=O)N(c2ccccc2)c2ccc(F)cc2)CC1 |  | 10.5 to 1590 nM
O=C(O)COC[C@H]1CC[C@@H](COC(=O)N(c2ccccc2)c2cccc(F)c2)CC1 |  | 10.5 to 1590 nM
